Here are results for eleven compounds from patent US11147272B2, “Pyridone compounds and agricultural and horticultural fungicides comprising the same as active ingredients” (MITSUI CHEMICALS AGRO, INC., priority 2017, dated 2021).

Assay [1] concerns Magnaporthe grisea. As to the kind of experiment: whole plant or invertebrate. The format is in vivo. Conditions: Blast on rice; control value class.
Assay [2] relates to Alternaia brassicicola. The assay is described as follows: Test Example C: Alternaria sooty spot on cabbage. The format is in vivo. Conditions: Alternaria sooty spot on cabbage; control value class. An excerpt:
Seeds of a test plant (cabbage variety: Shikidori) were planted and cultivated until the cotyledons extended.
<Control Value> Control value=100{1−(n/3)}

The test system of assay [3] is Puccinia recondita. The assay is described as follows: Test Example E: Brown rust on wheat. Type of assay: in vivo. Conditions: Brown rust on wheat; control value class.
In assay [4] the test system is Phytophthora infestans. As to the kind of experiment: whole plant or invertebrate. The format is in vivo. Conditions: Late blight on tomato; control value class.
Assay [5] has as its system Botrytis cinerea. The assay is described as follows: Test Example B: Gray mold on tomato. Conditions: Gray mold on tomato; control value class.
Assay [6] relates to Plasmopara viticola. The assay is described as follows: Test Example G: Downy mildew on vine. Conditions: Downy mildew on vine; 250 ppm spray, 7 to 10 days after inoculation.
The test system of assay [7] is Colletotrichum orbiculare. As to the kind of experiment: Test Example H: Anthracnose on cucumber. As to conditions: Anthracnose on cucumber; 250 ppm spray, 6 to 10 days after inoculation.
Assay [8] deals with Blumeria graminis f. sp. hordei. As to the kind of experiment: Test Example D: Powdery mildew on barley. Conditions: Powdery mildew on barley; control value class.

Turning to `CCn1c(-c2c(F)cc(F)cc2F)c(C(Br)=CBr)cc(Cl)c1=O` [compound 326], in assay [1], the “Test A control value” is given as “H (more than 50% control value)”. In assay [2], the “Test C control value” is “H (more than 50% control value)”. For the same compound, the “Test E control value” in assay [3] was “H (more than 50% control value)”. Moreover, in assay [4], the “Test F control value” was “L (50% or less control value)”. Further, the “Test B control value” in assay [5] is recorded as “H (more than 50% control value)”. The “Test G control value” in assay [6] is “L (50% or less control value)”. In assay [7], the “Test H control value” is recorded as “H (more than 50% control value)”. In addition, the “Test D control value” in assay [8] is “H (more than 50% control value)”.

Consider `CCc1cc(Cl)c(=O)n(CC)c1-c1ccc(OC)cc1Cl` [compound 327], for which, in assay [1], the “Test A control value” is on record as “H (more than 50% control value)”. The “Test C control value” in assay [2] is “H (more than 50% control value)”. Moreover, in assay [3], the “Test E control value” was “H (more than 50% control value)”. Moreover, the “Test F control value” in assay [4] was “H (more than 50% control value)”. In addition, the “Test B control value” in assay [5] was “H (more than 50% control value)”. Also, the “Test G control value” in assay [6] is recorded as “H (more than 50% control value)”. Also, in assay [7], the “Test H control value” was “H (more than 50% control value)”. Moreover, the “Test D control value” in assay [8] is on record as “L (50% or less control value)”.

With `CCc1cc(Br)c(=O)n(CC)c1-c1ccc(OC)cc1Cl` [compound 328], the “Test A control value” in assay [1] is given as “H (more than 50% control value)”. Further, the “Test C control value” in assay [2] was “H (more than 50% control value)”. In assay [3], the “Test E control value” is “H (more than 50% control value)”. Moreover, the “Test F control value” in assay [4] was “L (50% or less control value)”. Moreover, the “Test B control value” in assay [5] is on record as “H (more than 50% control value)”. Further, the “Test G control value” in assay [6] was “H (more than 50% control value)”. In assay [7], the “Test H control value” is listed as “H (more than 50% control value)”. Besides, the “Test D control value” in assay [8] is recorded as “L (50% or less control value)”.

With `CCCc1ccc(=O)n(C)c1-c1ccc(F)cc1Cl` [compound 329], the “Test A control value” in assay [1] is reported as “L (50% or less control value)”. In assay [2], the “Test C control value” is given as “L (50% or less control value)”. Also, in assay [3], the “Test E control value” is on record as “H (more than 50% control value)”. Besides, the “Test F control value” in assay [4] is listed as “L (50% or less control value)”. For the same compound, the “Test B control value” in assay [5] is reported as “H (more than 50% control value)”. In addition, in assay [6], the “Test G control value” is listed as “L (50% or less control value)”. The “Test H control value” in assay [7] was “L (50% or less control value)”. Moreover, the “Test D control value” in assay [8] is on record as “H (more than 50% control value)”.

As to `CCc1cc(Cl)c(=O)n(C)c1-c1ccc(O)cc1Cl` [compound 330], the “Test A control value” in assay [1] was “L (50% or less control value)”. In assay [2], the “Test C control value” is “L (50% or less control value)”. Moreover, the “Test E control value” in assay [3] is listed as “L (50% or less control value)”. For the same compound, in assay [4], the “Test F control value” is “L (50% or less control value)”. The “Test B control value” in assay [5] is recorded as “H (more than 50% control value)”. Also, in assay [6], the “Test G control value” is reported as “H (more than 50% control value)”. Besides, the “Test H control value” in assay [7] is reported as “L (50% or less control value)”. For the same compound, the “Test D control value” in assay [8] is recorded as “L (50% or less control value)”.

As for `CCCc1ccc(=S)n(CC)c1-c1ccc(F)cc1Cl` [compound 331], in assay [1], the “Test A control value” is given as “L (50% or less control value)”. The “Test C control value” in assay [2] is listed as “L (50% or less control value)”. For the same compound, in assay [3], the “Test E control value” is “H (more than 50% control value)”. In assay [4], the “Test F control value” is “L (50% or less control value)”. For the same compound, in assay [5], the “Test B control value” is recorded as “H (more than 50% control value)”. Moreover, the “Test G control value” in assay [6] is on record as “L (50% or less control value)”. In assay [7], the “Test H control value” is given as “H (more than 50% control value)”. Besides, in assay [8], the “Test D control value” was “H (more than 50% control value)”.

As for `CCCc1cc(Cl)c(=O)n(C)c1-c1ccc(F)cc1Cl` [compound 332], the “Test A control value” in assay [1] was “H (more than 50% control value)”. For the same compound, in assay [2], the “Test C control value” was “H (more than 50% control value)”. Moreover, the “Test E control value” in assay [3] was “H (more than 50% control value)”. Further, the “Test F control value” in assay [4] was “L (50% or less control value)”. Further, in assay [5], the “Test B control value” was “H (more than 50% control value)”. Also, the “Test G control value” in assay [6] is “L (50% or less control value)”. For the same compound, the “Test H control value” in assay [7] is given as “H (more than 50% control value)”. Further, the “Test D control value” in assay [8] is “H (more than 50% control value)”.

As to `CCCc1ccc(=O)n(C)c1-c1ccc(OC)cc1Cl` [compound 334], the “Test A control value” in assay [1] is listed as “L (50% or less control value)”. Further, the “Test C control value” in assay [2] was “L (50% or less control value)”. Besides, the “Test E control value” in assay [3] is listed as “H (more than 50% control value)”. Moreover, the “Test F control value” in assay [4] is reported as “L (50% or less control value)”. Further, in assay [5], the “Test B control value” was “H (more than 50% control value)”. The “Test G control value” in assay [6] is given as “L (50% or less control value)”. For the same compound, the “Test H control value” in assay [7] is recorded as “L (50% or less control value)”. For the same compound, the “Test D control value” in assay [8] is on record as “H (more than 50% control value)”.

Take `CCCc1cc(Cl)c(=O)n(C)c1-c1ccc(OC)cc1Cl` [compound 335]: the “Test A control value” in assay [1] was “H (more than 50% control value)”. The “Test C control value” in assay [2] was “H (more than 50% control value)”. Also, the “Test E control value” in assay [3] is recorded as “H (more than 50% control value)”. Moreover, the “Test F control value” in assay [4] is given as “L (50% or less control value)”. In addition, the “Test B control value” in assay [5] is recorded as “H (more than 50% control value)”. Besides, the “Test G control value” in assay [6] was “H (more than 50% control value)”. In addition, in assay [7], the “Test H control value” is “H (more than 50% control value)”. Further, in assay [8], the “Test D control value” was “H (more than 50% control value)”.

On to `CCCc1cc(Br)c(=O)n(C)c1-c1ccc(OC)cc1Cl` [compound 336], for which the “Test A control value” in assay [1] is reported as “H (more than 50% control value)”. The “Test C control value” in assay [2] was “H (more than 50% control value)”. Also, in assay [3], the “Test E control value” is given as “H (more than 50% control value)”. Besides, the “Test F control value” in assay [4] is “L (50% or less control value)”. Moreover, in assay [5], the “Test B control value” is recorded as “H (more than 50% control value)”. For the same compound, in assay [6], the “Test G control value” is reported as “H (more than 50% control value)”. In assay [7], the “Test H control value” is listed as “H (more than 50% control value)”. In addition, in assay [8], the “Test D control value” is given as “L (50% or less control value)”.

As to `CCOc1ccc(-c2c(CC)cc(Cl)c(=O)n2C)c(Cl)c1` [compound 337], the “Test A control value” in assay [1] is on record as “L (50% or less control value)”. In assay [2], the “Test C control value” is “L (50% or less control value)”. In assay [3], the “Test E control value” is “H (more than 50% control value)”. The “Test F control value” in assay [4] is “L (50% or less control value)”. The “Test B control value” in assay [5] is given as “H (more than 50% control value)”. Further, the “Test G control value” in assay [6] is “L (50% or less control value)”. The “Test H control value” in assay [7] is on record as “H (more than 50% control value)”. Further, in assay [8], the “Test D control value” is “L (50% or less control value)”.
